Experimental data reported in US12110276B2 (Genentech, Inc., priority 2021, dated 2024).

What was measured:
TEAD2 = TEAD2 (Homo sapiens (Human), UniProt Q15562);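 note: TR-FRET competition assay with His-tagged TEAD protein and a biotinylated lipid pocket probe, compound pre-incubated 30 min or 4 h at room temperature, displacement lowers signal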
Experimental: His-tagged TEAD proteins are pre-incubated with TEAD project compounds for 30 minutes or 4 hours at room temperature. Biotinylated lipid pocket probes are then added to the TEAD/Compound mixture and incubated for 60 minutes at room temperature. The lipid pocket probe competes with the test compound for the TEAD lipid pocket until equilibrium is reached. After 60 minutes, Europium labelled anti-His (Perkin Elmer #AD0110) and XL665 labelled streptavidin (CIS Bio 610SAXAC) are added to the TEAD/test compound/lipid pocket mixture and incubated for 30 minutes or 4 hours. TR-FRET values are then measured using an EnVision multi-label plate reader (Perkin Elmer Cat #2104-0010A.) If the lipid pocket probe binds to TEAD as expected, a TR-FRET signal results from the proximity of anti-His Eu and XL665. If a TEAD lipid pocket binder such as binds and displaces the lipid pocket probe, the disruption of the TEAD:probe interaction results in a decrease in TR-FRET signal. The potency of compounds as TEAD lipid pocket binders is determined by IC50 value generated using a non-linear 4 parameter curve fit.

TEAD1 = TEAD1 (Homo sapiens (Human), UniProt P28347); assay: TR-FRET lipid pocket probe competition assay (Lipid HTRF), TEAD1; format: binding; details: 4 hours pre-incubation; read-out: Lipid HTRF TEAD1 IC50;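 note: His-tagged TEAD1 with biotinylated probe, detected via Europium anti-His and XL665 streptavidin, probe displacement lowers TR-FRET signal, IC50 from four-parameter nonlinear fit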
TEAD4 = TEAD4 (Homo sapiens (Human), UniProt Q15561); assay: TR-FRET lipid pocket probe competition assay (Lipid HTRF), TEAD4; format: binding; details: 4 hours pre-incubation; read-out: Lipid HTRF TEAD4 IC50;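 note: His-tagged TEAD4 with biotinylated lipid-pocket probe, read by Europium anti-His and XL665 streptavidin, where probe displacement lowers the TR-FRET signal, IC50 from a four-parameter fit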
TEAD3 = TEAD3 (Homo sapiens (Human), UniProt Q99594); assay: TR-FRET lipid pocket probe competition assay (Lipid HTRF), TEAD3; format: binding; details: 4 hours pre-incubation; read-out: Lipid HTRF TEAD3 IC50
Chain of TEAD3 (Q99594 whole entry, species assumed): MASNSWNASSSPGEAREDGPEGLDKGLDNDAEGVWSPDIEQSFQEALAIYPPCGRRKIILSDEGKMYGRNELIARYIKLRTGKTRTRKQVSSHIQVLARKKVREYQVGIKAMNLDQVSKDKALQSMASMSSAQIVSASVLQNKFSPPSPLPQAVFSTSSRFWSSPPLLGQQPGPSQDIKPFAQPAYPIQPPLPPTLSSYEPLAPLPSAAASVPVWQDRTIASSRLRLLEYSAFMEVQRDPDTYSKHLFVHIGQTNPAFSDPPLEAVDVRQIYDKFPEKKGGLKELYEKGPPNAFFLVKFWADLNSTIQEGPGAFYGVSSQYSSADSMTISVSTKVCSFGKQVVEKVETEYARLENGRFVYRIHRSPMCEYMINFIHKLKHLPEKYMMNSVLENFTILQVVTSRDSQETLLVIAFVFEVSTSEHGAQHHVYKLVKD

Chain of TEAD4 (Q15561 whole entry, species assumed): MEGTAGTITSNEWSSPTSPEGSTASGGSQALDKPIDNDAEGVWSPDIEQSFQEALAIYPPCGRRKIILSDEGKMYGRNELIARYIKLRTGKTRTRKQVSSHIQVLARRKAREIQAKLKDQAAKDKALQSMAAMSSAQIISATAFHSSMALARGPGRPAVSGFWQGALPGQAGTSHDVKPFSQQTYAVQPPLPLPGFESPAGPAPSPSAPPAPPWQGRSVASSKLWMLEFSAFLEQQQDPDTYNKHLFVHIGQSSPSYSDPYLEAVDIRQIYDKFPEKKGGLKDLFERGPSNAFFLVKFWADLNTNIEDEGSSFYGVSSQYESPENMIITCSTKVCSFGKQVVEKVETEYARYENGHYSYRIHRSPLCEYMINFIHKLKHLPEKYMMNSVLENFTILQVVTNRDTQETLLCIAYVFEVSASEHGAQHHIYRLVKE
Chain of TEAD2 (Q15562 whole entry, species assumed): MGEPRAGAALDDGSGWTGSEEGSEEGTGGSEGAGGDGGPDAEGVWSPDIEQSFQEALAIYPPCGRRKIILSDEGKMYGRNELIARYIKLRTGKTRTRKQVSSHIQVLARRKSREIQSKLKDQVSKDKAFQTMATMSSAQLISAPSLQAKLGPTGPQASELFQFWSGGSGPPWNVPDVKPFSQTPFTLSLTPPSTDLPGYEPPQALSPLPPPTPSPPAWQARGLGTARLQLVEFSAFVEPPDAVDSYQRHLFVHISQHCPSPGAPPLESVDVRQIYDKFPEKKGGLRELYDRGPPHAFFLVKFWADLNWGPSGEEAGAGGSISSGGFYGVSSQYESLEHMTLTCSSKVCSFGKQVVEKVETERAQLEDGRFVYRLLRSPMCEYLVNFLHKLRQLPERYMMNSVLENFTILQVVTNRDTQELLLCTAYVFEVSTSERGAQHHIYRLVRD
Chain of TEAD1 (P28347 whole entry, species assumed): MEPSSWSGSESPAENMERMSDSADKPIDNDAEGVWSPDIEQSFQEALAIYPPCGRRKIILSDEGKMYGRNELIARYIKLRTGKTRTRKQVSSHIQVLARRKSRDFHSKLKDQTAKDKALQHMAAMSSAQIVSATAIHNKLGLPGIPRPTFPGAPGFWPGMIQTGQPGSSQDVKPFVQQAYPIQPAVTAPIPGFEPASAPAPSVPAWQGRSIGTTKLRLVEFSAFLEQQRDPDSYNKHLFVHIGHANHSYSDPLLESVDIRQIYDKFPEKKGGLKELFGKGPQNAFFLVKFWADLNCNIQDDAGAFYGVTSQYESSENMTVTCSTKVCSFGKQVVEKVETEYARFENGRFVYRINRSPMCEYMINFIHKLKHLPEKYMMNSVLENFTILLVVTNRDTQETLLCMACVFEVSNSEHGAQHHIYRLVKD

Compound | IC50 (TEAD2) [nM] | IC50 (TEAD1) [nM] | IC50 (TEAD4) [nM] | IC50 (TEAD3) [nM]
C=CC(=O)NCc1nn(-c2ccc(OC(F)(F)F)cc2)c2nccc(OCCO)c12 [Compound 126, N-((4-(2-Hydroxyethoxy)-1-(4-(trifluoromethoxy)phenyl)-1H-pyrazolo[3,4-b]pyridin-3-yl)methyl)acrylamide] | 120 | 22 | 4.4 | 50000
O=C(C#CCO)NCc1nn(-c2ccc(OC(F)(F)F)cc2)c2nccc(CO)c12 [Compound 128, 4-Hydroxy-N-((4-(hydroxymethyl)-1-(4-(trifluoromethoxy)phenyl)-1H-pyrazolo[3,4-b]pyridin-3-yl)methyl)but-2-ynamide] | 12 | 6.5 | 3.6 | 72
O=C(/C=C/CF)N1CC(c2nn(-c3ccc(OC(F)(F)F)cc3)c3ccnc(N4CC(O)C4)c23)C1 [Compound 137, (E)-4-fluoro-1-(3-(4-(3-hydroxyazetidin-1-yl)-1-(4-(trifluoromethoxy)phenyl)-1H-pyrazolo[4,3-c]pyridin-3-yl)azetidin-1-yl)but-2-en-1-one] | 360 | 72 | 26 | 5200
C=CC(=O)N(C)Cc1nn(-c2ccc(OC(F)(F)F)cc2)c2nccc([C@H](O)CO)c12 [Compound 139, (S)-N-((4-(1,2-Dihydroxyethyl)-1-(4-(trifluoromethoxy)phenyl)-1H-pyrazolo[3,4-b]pyridin-3-yl)methyl)-N-methylacrylamide] | 26 | 31 | 12 | 600
C=C(F)C(=O)N1CC(c2nn(-c3ccc(OC(F)(F)F)cc3)c3nccc(N4CC([C@H](O)CO)C4)c23)C1 [Compound 141, (S)-1-(3-(4-(3-(1,2-dihydroxyethyl)azetidin-1-yl)-1-(4-(trifluoromethoxy)phenyl)-1H-pyrazolo[3,4-b]pyridin-3-yl)azetidin-1-yl)-2-fluoroprop-2-en-1-one] | 54 | 27 | 6.9 | 2000
C=C(F)C(=O)N1CC(c2nn(-c3ccc(OC(F)(F)F)cc3)c3nccc(N4CC(CO)(CO)C4)c23)C1 [Compound 142, 1-(3-(4-(3,3-Bis(hydroxymethyl)azetidin-1-yl)-1-(4-(trifluoromethoxy)phenyl)-1H-pyrazolo[3,4-b]pyridin-3-yl)azetidin-1-yl)-2-fluoroprop-2-en-1-one] | 330 | 150 | 9 | 50000
C=CC(=O)NCc1nn(-c2ccc(OC(F)(F)F)cc2)c2nccc(N[C@H]3C[C@@H](O)C3)c12 [Compound 143, N-((4-((3-hydroxycyclobutyl)amino)-1-(4-(trifluoromethoxy)phenyl)-1H-pyrazolo[3,4-b]pyridin-3-yl)methyl)acrylamide] | 65 | 16 | 65 | 50000
C=CC(=O)NCc1nn(-c2ccc(OC(F)(F)F)cc2)c2nccc([C@H]3COC(=O)O3)c12 [Compound 144, (S)-N-((4-(2-Oxo-1,3-dioxolan-4-yl)-1-(4-(trifluoromethoxy)phenyl)-1H-pyrazolo[3,4-b]pyridin-3-yl)methyl)acrylamide] | 150 | 560 | 55 | 50000
C/C=C(\C)C(=O)N1CC(c2nn(-c3ccc(OC(F)(F)F)cc3)c3nccc(CO)c23)C1 [Compound 151, (E)-1-(3-(4-(Hydroxymethyl)-1-(4-(trifluoromethoxy)phenyl)-1H-pyrazolo[3,4-b]pyridin-3-yl)azetidin-1-yl)-2-methylbut-2-en-1-one] | 630 | 680 | 570 | 50000
O=C(C1=CCOC1)N1CC(c2nn(-c3ccc(OC(F)(F)F)cc3)c3nccc(CO)c23)C1 [Compound 152, (2,5-Dihydrofuran-3-yl)(3-(4-(hydroxymethyl)-1-(4-(trifluoromethoxy)phenyl)-1H-pyrazolo[3,4-b]pyridin-3-yl)azetidin-1-yl)methanone] | 810 | 220 | 140 | 1200
C=C(F)C(=O)N1CC(c2nn(-c3ccc(OC(F)(F)F)cc3)c3nccc(-c4cnn(C)c4)c23)C1 [Compound 158, 2-Fluoro-1-(3-(4-(1-methyl-1H-pyrazol-4-yl)-1-(4-(trifluoromethoxy)phenyl)-1H-pyrazolo[3,4-b]pyridin-3-yl)azetidin-1-yl)prop-2-en-1-one] | 690 | 51 | 64 | 4300
C=C(C)S(=O)(=O)N1CC(c2nn(-c3ccc(OC(F)(F)F)cc3)c3nccc([C@H](O)CO)c23)C1 [Compound 159, (S)-1-(3-(1-(Prop-1-en-2-ylsulfonyl)azetidin-3-yl)-1-(4-(trifluoromethoxy)phenyl)-1H-pyrazolo[3,4-b]pyridin-4-yl)ethane-1,2-diol] | 5.7 | 45 | 8.5 | 240

Second part, the molecule after the results:

IC50 (TEAD2) [nM] | IC50 (TEAD1) [nM] | IC50 (TEAD4) [nM] | IC50 (TEAD3) [nM] | Compound
870 | 800 | 44 | 1700 | C=C(F)C(=O)N1CC(c2nn(-c3ccc(OC(F)(F)F)cc3)c3nccc(N4CC[C@@H](O)C4=O)c23)C1 [Compound 125, (R)-1-(3-(1-(2-fluoroacryloyl)azetidin-3-yl)-1-(4-(trifluoromethoxy)phenyl)-1H-pyrazolo[3,4-b]pyridin-4-yl)-3-hydroxypyrrolidin-2-one]
17 | 7.9 | 3.3 | 13 | O=C(/C=C/CO)N1CC(c2nn(-c3ccc(OC(F)(F)F)cc3)c3nccc(Cl)c23)C1 [Compound 127, (E)-1-(3-(4-Chloro-1-(4-(trifluoromethoxy)phenyl)-1H-pyrazolo[3,4-b]pyridin-3-yl)azetidin-1-yl)-4-hydroxybut-2-en-1-one]
20 | 110 | 43 | 200 | CC#CC(=O)N1CC(c2nn(-c3ccc(OC(F)(F)F)cc3)c3nccc([C@H](O)CO)c23)C1 [Compound 129, (S)-1-(3-(4-(1,2-Dihydroxyethyl)-1-(4-(trifluoromethoxy)phenyl)-1H-pyrazolo[3,4-b]pyridin-3-yl)azetidin-1-yl)but-2-yn-1-one]
1000 | 380 | 540 | 5400 | C=C(F)C(=O)N1CC(c2nn(-c3ccc(OC(F)(F)F)cc3)c3nccc(-c4c[nH]cn4)c23)C1 [Compound 130, 1-(3-(4-(1H-Imidazol-4-yl)-1-(4-(trifluoromethoxy)phenyl)-1H-pyrazolo[3,4-b]pyridin-3-yl)azetidin-1-yl)-2-fluoroprop-2-en-1-one]
43 | 14 | 22 | 360 | C=CC(=O)NCc1nn(-c2ccc(OC(F)(F)F)cc2)c2nccc(-c3cn[nH]c3)c12 [Compound 134, N-((4-(1H-Pyrazol-4-yl)-1-(4-(trifluoromethoxy)phenyl)-1H-pyrazolo[3,4-b]pyridin-3-yl)methyl)acrylamide]
68 | 390 | 99 | 34000 | C=CC(=O)NCc1nn(-c2ccc(OC(F)(F)F)cc2)c2nccc(C(C)(C)O)c12 [Compound 135, N-((4-(2-Hydroxypropan-2-yl)-1-(4-(trifluoromethoxy)phenyl)-1H-pyrazolo[3,4-b]pyridin-3-yl)methyl)acrylamide]
720 | 230 | 440 | 4400 | C=CC(=O)NCc1nn(-c2ccc(OC(F)F)cc2)c2nccc(CO)c12 [Compound 140, N-((1-(4-(difluoromethoxy)phenyl)-4-(hydroxymethyl)-1H-pyrazolo[3,4-b]pyridin-3-yl)methyl)acrylamide]
90 | 17 | 14 | 280 | O=C(NCc1nn(-c2ccc(OC(F)(F)F)cc2)c2nccc(CO)c12)C1=CCC1 [Compound 148, N-((4-(Hydroxymethyl)-1-(4-(trifluoromethoxy)phenyl)-1H-pyrazolo[3,4-b]pyridin-3-yl)methyl)cyclobut-1-enecarboxamide]
1200 | 560 | 460 | 50000 | O=C(C1=CCCC1)N1CC(c2nn(-c3ccc(OC(F)(F)F)cc3)c3nccc(CO)c23)C1 [Compound 150, Cyclopent-1-en-1-yl(3-(4-(hydroxymethyl)-1-(4-(trifluoromethoxy)phenyl)-1H-pyrazolo[3,4-b]pyridin-3-yl)azetidin-1-yl)methanone]
350 | 320 | 160 | 6900 | C=C(F)C(=O)NCc1nn(-c2ccc(OC(F)(F)F)cc2)c2nccc([C@H](O)CO)c12 [Compound 155, (S)-N-((4-(1,2-Dihydroxyethyl)-1-(4-(trifluoromethoxy)phenyl)-1H-pyrazolo[3,4-b]pyridin-3-yl)methyl)-2-fluoroacrylamide]
25 | 33 | 7.8 | 740 | O=C(NCc1nn(-c2ccc(OC(F)(F)F)cc2)c2nccc([C@H](O)CO)c12)C1=CCC1 [Compound 156, (S)-N-((4-(1,2-Dihydroxyethyl)-1-(4-(trifluoromethoxy)phenyl)-1H-pyrazolo[3,4-b]pyridin-3-yl)methyl)cyclobut-1-enecarboxamide]
15 | 76 | 43 | 1200 | C=C(C)S(=O)(=O)N1CC(c2nn(-c3ccc(OC(F)(F)F)cc3)c3nccc([C@@H](O)CO)c23)C1 [Compound 160, (R)-1-(3-(1-(prop-1-en-2-ylsulfonyl)azetidin-3-yl)-1-(4-(trifluoromethoxy)phenyl)-1H-pyrazolo[3,4-b]pyridin-4-yl)ethane-1,2-diol]
